Counter-ions that a name gives are not always drawn.
Key:
[1] = molecular target: leukotriene B4 specific receptor on the membrane of human neutrophils (Homo sapiens, UniProt Q15722); experiment: biochemical; conditions: 0.1-0.2 nM ^3 H-LTB4, 10 minutes at 4° C., read-out: Inhibition of [^3 H]LTB4 Binding to Human Neutrophils IC50
Experimental: The effectiveness of compounds to inhibit the binding of leukotriene B4 to a specific receptor on the membrane of human neutrophils was measured by using an adaptation of a radio-ligand binding assay developed by Goldman and Goetzl, J. Immunol., 129, 1600 (1982). Other investigators have developed similar assays (see, e.g., Kreisle, et al., J. Exp. Med., 157, 628 (1983) and Lin, et al., Prostaglandins, 28, 837 (1984)).
Cells used in the assay were isolated by standard techniques of centrifugation on Ficoll-Hypaque, dextran 70 sedimentation and hypotonic lysis. The following procedure was used. Freshly-prepared buffy coat layers from two individuals were obtained from a local blood donor center. The cells were mixed and diluted to 484 ml with phosphate buffered saline containing heparin (10 units/ml) and heat-inactivated calf serum (5%). This was divided into 20 ml aliquots and the aliquots layered on top of Ficoll-Paque (12 ml). The material was then centrifuged at 500 g for 40 minutes at room temperature. The resulting upper layer of platelets and mononuclear cells was discarded. The lower layer containing erythrocytes and neutrophils was retained. Buffer was added (1 ml per 4 ml of lower layer) and the suspension mixed. For each milliliter of this mixture, 0.33 ml of 6% Macrodex was added. After stirring the cells were allowed to sediment for 1 hour at 37° C. The resulting erythrocyte pellet was discarded and the neutrophil enriched supernatant fluid centrifuged at 500 g for 10 minutes at 4° C. […] Subsequently, the volume was made up to 50 ml by addition of ice-cold buffer and the cells resuspended. The suspension was then centrifuged at 300 g for 10 minutes at 4° C. […] This buffer consisted of Hanks' balanced salt solution and 0.1% ovalbumin (pH 7.3).
The amount of bound ^3 H-LTB4 was then measured and compared with the amount bound in the absence of test compound. The assay was carried out in microcentrifuge tubes by adding first 10 μl test compound dissolved in DMSO, followed by adding 20 μl ^3 H-LTB4 diluted in assay buffer, and finally adding 500 μl of the cell suspension. At the end of the 10 minutes incubation, 300 μl of a mixture of dibutyl and dinonyl phthalate (7:2) were added and the tubes centrifuged for 2 minutes in a microcentrifuge. The radioactivity bound to the cell pellet was measured by scintillation spectroscopy.

[2] = molecular target: [^3 H]-LTB4 binding to guinea pig lung membranes (Cavia porcellus, UniProt H0VYV8); experiment: Inhibition of [^3 H]LTB4 Binding to Guinea Pig Lung Membranes; conditions: approximately 140 pM [^3 H]-LTB4, 45 minutes at 30° C., pH 6.5, mean -log Ki, read-out: Inhibition of [^3 H]LTB4 Binding to Guinea Pig Lung Membranes pKi (converted)
Sequence of [^3 H]-LTB4 binding to guinea pig lung membranes (H0VYV8 1-348): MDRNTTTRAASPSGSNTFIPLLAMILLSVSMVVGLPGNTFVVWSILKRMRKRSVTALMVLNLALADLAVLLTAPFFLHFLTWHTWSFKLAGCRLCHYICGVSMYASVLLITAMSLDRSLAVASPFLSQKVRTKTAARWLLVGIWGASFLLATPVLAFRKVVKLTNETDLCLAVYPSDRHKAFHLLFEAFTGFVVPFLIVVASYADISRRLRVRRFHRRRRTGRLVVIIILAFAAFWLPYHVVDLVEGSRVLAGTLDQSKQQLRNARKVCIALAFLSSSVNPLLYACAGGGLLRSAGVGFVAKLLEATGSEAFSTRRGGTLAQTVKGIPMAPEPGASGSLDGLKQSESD

Sequence of leukotriene B4 specific receptor on the membrane of human neutrophils (Q15722 whole entry): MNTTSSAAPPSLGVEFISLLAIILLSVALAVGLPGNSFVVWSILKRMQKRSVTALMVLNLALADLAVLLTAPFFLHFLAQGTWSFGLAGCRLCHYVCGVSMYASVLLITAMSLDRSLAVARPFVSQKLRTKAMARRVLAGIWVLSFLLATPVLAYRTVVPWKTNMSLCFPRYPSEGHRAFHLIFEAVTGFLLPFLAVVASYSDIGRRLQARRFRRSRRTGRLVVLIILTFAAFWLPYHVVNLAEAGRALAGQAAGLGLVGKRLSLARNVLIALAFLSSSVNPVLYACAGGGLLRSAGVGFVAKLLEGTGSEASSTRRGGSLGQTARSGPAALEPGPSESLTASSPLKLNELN

Compound | IC50 [1] | Ki [2]
CCCc1c(OCCCOc2cc(O)c(C(C)=O)cc2CC)cccc1OCC(=O)O [Example 3, 2-[2-propyl-3-[[3-(4-acetyl-2-ethyl-5-hydroxyphenoxy)proyl]oxy]phenoxy]acetic acid] | 67 nM | 4.79 nM
CCCc1c(OCCCOc2cc(O)c(C(C)=O)cc2CC)cccc1OC(CC)C(=O)O (centres unmarked) [Example 5, 2-[3-[3-(4-acetyl-2-ethyl-5-hydroxyphenoxy)propoxy)-2-propylphenoxy]butanoic acid] |  | 13.8 nM
CCc1cc(C(C)=O)c(O)cc1OCCCOc1ccc2oc3ccccc3c2c1CCC(=O)O [Example 8, 3-[1-[2-[3-(4-acetyl-2-ethyl-5-hydroxyphenoxy)propoxy]dibenzofuran]]propanoic acid disodium salt] | 43 nM | 2.04 nM
CCc1cc(C(C)=O)c(O)cc1OCCCOc1ccc2ccc(OCC(=O)O)cc2c1 [Example 16, [2-[7-[3-(4-Acetyl-2-ethyl-5-hydroxyphenoxy)propoxy]naphthalenyl]oxy]acetic acid sodium salt hydrate] | 409 nM | 117 nM
CCc1cc(C(C)=O)c(O)cc1OCCCOc1ccc(Oc2ccc(C(=O)O)cc2)cc1 [sodium salt hydrate] | 193 nM | 132 nM
CCCc1cc(Oc2cccc(C(=O)O)c2)ccc1OCCCOc1cc(O)c(C(C)=O)cc1CC [Example 9, 3-[3-propyl-4-[3-(4-acetyl-2-ethyl-5-hydroxyphenoxy)propoxy]phenoxy]benzoic acid disodium salt] | 158 nM | 257 nM
CCc1cc(C(C)=O)c(O)cc1OCCCOc1cccc(Oc2cccc(C(=O)O)c2)c1 [Example 14, 3-[3-[3-(4-acetyl-2-ethyl-5-hydroxyphenoxy)propoxy]phenoxy]benzoic acid disodium salt hemihydrate] | 456 nM | 174 nM
CCc1cc(C(C)=O)c(O)cc1OCCCOc1ccc(-c2ccccc2)cc1CCC(=O)O [Example 11, 3-[1-[5-phenyl-2-[3-(4-acetyl-2-ethyl-5-hydroxyphenoxy)propoxy]phenyl]]propanoic acid disodium salt] | 115 nM | 28.2 nM
CCCc1c(OCCCOc2cc(O)c(C(C)=O)cc2CC)ccc2c1OC(C(=O)O)CC2 (centres unmarked) [Example 1, 7-[3-(4-acetyl-2-ethyl-5-hydroxyphenoxy)propoxy]-3,4-dihydro-8-propyl-2H-1-benzopyran-2-carboxylic acid] |  | 8.13 nM
CCCc1c(OCCCCOc2cc(O)c(C(C)=O)cc2CC)cccc1Oc1ccccc1C(=O)O [Example 18, 2-[3-[4-(4-Acetyl-2-ethyl-5-hydroxyphenoxy)butoxy]-2-propyl-phenoxy]benzoic acid disodium salt] | 94 nM | 53.7 nM

Continued, values first:

IC50 [1] | Ki [2] | Compound
327 nM | 25.7 nM | CCCc1c(OCCCOc2cc(O)c(C(C)=O)cc2CC)c(I)cc2c1OC(C(=O)O)CC2 (centres unmarked) [Example 6, 6-iodo-8-propyl-7-[3-[4-acetyl-2-ethyl-5-hydroxyphenoxy)propoxy]-3,4-dihydro-2H-1-benzopyran-2-caroxylic acid]
291 nM | 182 nM | CCc1cc(C(C)=O)c(O)cc1OCCCOc1cccc(Oc2ccccc2C(=O)O)c1 [Example 13, 2-[3-[3-(4-acetyl-2-ethyl-5-hydroxyphenoxy)propoxy]phenoxy]benzoic acid disodium salt hemihydrate]
23 nM | 15.1 nM | CCCc1c(OCCCOc2cc(O)c(C(C)=O)cc2CC)cccc1OC(C)C(=O)O (centres unmarked) [Example 4, 2-[3-[3-(4-acetyl-2-ethyl-5-hydroxyphenoxy)propoxy)-2-propylphenoxy]propanoic acid]
190 nM | 741 nM | CCc1cc(C(C)=O)c(O)cc1OCCCOc1ccc2c(=O)c3cc(C(=O)O)ccc3oc2c1 [Example 7, 6-[3-(4-acetyl-2-ethyl-5-hydroxyphenoxy)propoxy]-9-oxo-9H-xanthene-2-carboxylic acid disodium salt sesquihydrate]
24 nM | 34.7 nM | CCCc1c(OCCCOc2cc(O)c(C(C)=O)cc2CC)cccc1Oc1ccccc1C(=O)O [Example 19, 2-[3-[3-(4-Acetyl-2-ethyl-5-hydroxyphenoxy)propoxy]-2-propylphenoxy]benzoic acid disodium salt hydrate]
127 nM | 170 nM | CCCc1c(OCCCOc2cc(O)c(C(C)=O)cc2CC)cccc1OCc1ccccc1C(=O)O [Example 17, 2-[[3-[3-(4-acetyl-2-ethyl-5-hydroxyphenoxy)propoxy]-2-propylphenoxy]methyl]benzoic acid disodium salt hemihydrate]
46 nM | 6.61 nM | CCc1cc(C(C)=O)c(O)cc1OCCCOc1ccc(C(=O)c2cccc(C(=O)O)c2)cc1CCC(=O)O [Example 20, 3-[1-[2-[3-(4-acetyl-2-ethyl-5-hydroxyphenoxy)propoxy]-5-(3-carboxybenzoyl)phenyl]]propanoic acid trisodium salt hydrate]
326 nM | 1000 nM | CCCc1cc(Oc2ccc(C(=O)O)cc2)ccc1OCCCOc1cc(O)c(C(C)=O)cc1CC [sodium salt hydrate]
 | 0.977 nM | CCc1cc(C(C)=O)c(O)cc1OCCCOc1ccc2c(=O)c3cc(C(=O)O)ccc3oc2c1CCC(=O)O [Example 15, 3-[4-[7-carboxy-3-[3-(4-acetyl-2-ethyl-5-hydroxyphenoxy)propoxy]-9-oxo-9H-xanthene]]propanoic acid trisodium salt trihydrate]
